In assay [1] the test system is NADPH oxidase activity in neutrophils. Nature of the assay: AOPP-HSA-induced NADPH oxidase activity in neutrophils, lucigenin chemiluminescence. Particulars: neutrophils preincubated with various concentrations of NAC, AOPP-HSA 2 mg/ml, FIG. 2A. It counts as cell-based. On the procedure:
(§1) Human serum albumin (HSA) was exposed to HOCl at a molar HSA/HOCl molar ratio of 1/60. The AOPP-HSA preparation was incubated 30 minutes at room temperature and then dialysed overnight against PBS. Neutrophils from the Ficoll gradient pellet were separated from erythrocytes by sedimentation in dextran. Residual erythrocytes were lysed by treating the cell pellet with lysis buffer containing ammonium chloride. Purified neutrophils were resuspended at a concentration of 5×10^6/ml in phenol-red free HBSS at pH 7.4 and preincubated with medium alone or various concentrations of NAC. The capacity of AOPP-HSA to activate monocyte or neutrophil oxygenation activities was measured by chemiluminescence using dimethylbiacridinium (lucigenin) for NADH oxidase activity or luminol for myeloperoxidase activity as chemoluminogenic substrates. One hundred microliters of monocyte suspension (2×10^5/ml) was automatically injected into the luminometer tubes containing 100 μl of HBSS (basal activity), or the tested preparations including: native HSA or AOPP-HSA at 2 mg/ml. Chemiluminescence production was measured in duplicate and luminescence intensity was expressed in counts/min integrated over a 40 minutes period.

The test system of assay [2] is patients undergoing dialysis. Particulars: oral administration; Atherosclerosis 120 (1996) 241-244; cited from earlier work.
Assay [3] relates to myeloperoxidase activity in neutrophils. Nature of the assay: AOPP-HSA-induced myeloperoxidase activity in neutrophils, luminol chemiluminescence. The format is cell-based. Particulars: neutrophils preincubated with various concentrations of NAC, AOPP-HSA 2 mg/ml, FIG. 1A. How it is done:
as §1

Assay [4] has as its system NADPH oxidase activity in monocytes. Nature of the assay: AOPP-HSA-induced NADPH oxidase activity in monocytes, lucigenin chemiluminescence. It counts as cell-based. Particulars: AOPP-HSA 2 mg/ml, counts/min over 40 minutes, FIG. 2B. How it is done:
(§2) Human serum albumin (HSA) was exposed to HOCl at a molar HSA/HOCl molar ratio of 1/60. The AOPP-HSA preparation was incubated 30 minutes at room temperature and then dialysed overnight against PBS. Isolation of monocytes was performed by an indirect magnetic labelling system which allows the magnetic depletion of non monocytes i.e., T cells, B cells, NK cells, dendritic cells and basophils from a mononuclear cell suspension (obtained by blood sedimentation on a Ficoll gradient) using a cocktail of CD3, CD7, CD19, CD45RA, CD56 and anti-IgE antibodies. Purified monocytes were resuspended at a concentration of 2.5×10^6/ml in phenol-red free Hank's balanced salt solution (HBSS). The capacity of AOPP-HSA to activate monocyte or neutrophil oxygenation activities was measured by chemiluminescence using dimethylbiacridinium (lucigenin) for NADH oxidase activity or luminol for myeloperoxidase activity as chemoluminogenic substrates. One hundred microliters of monocyte suspension (2×10^5/ml) was automatically injected into the luminometer tubes containing 100 μl of HBSS (basal activity), or the tested preparations including: native HSA or AOPP-HSA at 2 mg/ml. Chemiluminescence production was measured in duplicate and luminescence intensity was expressed in counts/min integrated over a 40 minutes period.

Assay [5] relates to myeloperoxidase activity in monocytes. The experiment in a line: AOPP-HSA-induced myeloperoxidase activity in monocytes, luminol chemiluminescence. Particulars: AOPP-HSA 2 mg/ml, counts/min over 40 minutes, FIG. 1B. It counts as cell-based. On the procedure:
as §2

Each structure is given as a SMILES string.

`CC(=O)N[C@@H](CS)C(=O)O` [NAC, N-acetylcysteine]: the “inhibition of NADPH oxidase activity triggered by AOPP-HSA” value in assay [1] and in assay [4] was “dose-dependent inhibition” each time. For the same molecule, the “efficacy in the treatment of patients undergoing dialysis” value in assay [2] was “without efficacy”. In addition, the “inhibition of myeloperoxidase activity triggered by AOPP-HSA” value in assay [3] and in assay [5] was “dose-dependent inhibition” each time.

The values above are taken from patent US6627659B1, “Methods of decreasing the effects of oxidative stress using N-acetylcysteine” (Zambon Group S.p.A., priority 1999, dated 2003).
